Data taken from patent publication US8372813B2, “Antibacterial aminoglycoside analogs” (Achaogen, Inc., priority 2008, dated 2013).

Legend:
[1] = system: P. aeruginosa ATCC 27853 (APAE001); assay: MIC assay, CLSI broth microdilution; assay type: cell-based; conditions: Pseudomonas aeruginosa; ATCC27853; Mueller Hinton Broth, 35C, 20 hours
Experimental: (§1) Minimum inhibitory concentrations (MIC) were determined by reference Clinical and Laboratory Standards Institute (CLSI) broth microdilution methods per M7-A7 [2006]. Quality control ranges utilizing E. coli ATCC 25922, P. aeruginosa ATCC 27853 and S. aureus ATCC 29213, and interpretive criteria for comparator agents were as published in CLSI M100-S17 [2007]. Briefly, serial two-fold dilutions of the test compounds were prepared at 2× concentration in Mueller Hinton Broth. The compound dilutions were mixed in 96-well assay plates in a 1:1 ratio with bacterial inoculum. The inoculum was prepared by suspension of a colony from an agar plate that was prepared the previous day. Bacteria were suspended in sterile saline and added to each assay plate to obtain a final concentration of 5×10^5 CFU/mL. The plates were incubated at 35C for 20 hours in ambient air.

[2] = system: E. coli ATCC 25922 (AECO001); assay: MIC assay, CLSI broth microdilution; assay type: cell-based; conditions: Escherichia coli; ATCC25922; Mueller Hinton Broth, 35C, 20 hours
Experimental: as §1

NCC[C@H](O)C(=O)N[C@@H]1C[C@H](N)[C@@H](O[C@H]2O[C@H](CNCCO)CC[C@H]2N)[C@H](O[C@@H]2O[C@H](CO)[C@@H](O[C@H]3O[C@@H](CN)[C@@H](O)[C@H](O)[C@H]3N)[C@H]2O)[C@H]1O [1/20]
MIC [1]: ≤ 1 µg/mL | MIC [2]: ≤ 1 µg/mL
